Numbered stars: 1 amine (or outer) side, 2 acyl side, 3 side chain; on linkers, the order of the positions; unused ones are H or OH. Side chains are listed from the residue outwards. Peptide text beside a SMILES is read from it. * marks the point of attachment. C20 diacid = O=C(O)CCCCCCCCCCCCCCCCCCC(=O)*; γGlu = O=C(O)[C@H](CCC(=O)[*:2])N[*:1]; AEEA = NCCOCCOCC(=O)O
Experiment: Pharmacokinetic study in minipigs after intravenous administration
Type: in vivo
Conditions: female, Göttingen, minipig, plasma, i.v., 2 nmol/kg, harmonic mean, read-out: Terminal half-life (converted)
From the text: The purpose of this investigation was to determine the in vivo half-life of the compounds of the invention after i.v. administration to minipigs using a pharmacokinetic (PK) study in Göttingen Minipigs assessing terminal half-life. The expression ‘terminal half-life’ as used herein, and means the time period required to reduce the plasma concentration by 50%, measured after the initial distribution phase.
Animals and housing: Female Göttingen Minipigs, weighing approximately 15-25 kg, were obtained from Ellegaard Minipigs, Dalmose Denmark. The minipigs were housed individually in the Animal Unit at BioAdvice A/S, ∅lstykke Denmark (later Minerva Imaging A/S) and were fed restrictedly twice daily with Altromin 9033 (Chr. Petersen A/S, Ringsted, Denmark). […]
Administration of peptides and dosing solutions: There were no food restrictions during the study and the animals had ad libitum access to water during the whole study period. […] The plasma samples were analysed as described below.
Quantitative Assay for Plasma Samples: The test compound was assayed in plasma by turbulent flow chromatography coupled to liquid chromatography mass spectrometric (LCMS) detection. The selectivity of the method allowed various test compounds to be quantitated in one sample, e.g. cassette dosing. […]

## CC[C@H](C)[C@H](NC(=O)[C@H](CCC(=O)O)NC(=O)[C@H](C)NC(=O)[C@H](CC(N)=O)NC(=O)[C@@H](NC(=O)[C@@H](NC(=O)[C@H](C)NC(=O)[C@H](CCC(N)=O)NC(=O)[C@H](CCC(=O)O)NC(=O)[C@H](CCCNC(=N)N)NC(=O)[C@H](C)NC(=O)[C@H](C)NC(=O)[C@H](CCCNC(=N)N)NC(=O)[C@H](C)NC(=O)[C@H](CCCNC(=N)N)NC(=O)[C@H](C)NC(=O)[C@H](CCC(N)=O)NC(=O)[C@H](CCC(=O)O)NC(=O)[C@H](CC(C)C)NC(=O)[C@H](CC(C)C)NC(=O)[C@@H](NC(=O)[C@H](CCC(N)=O)NC(=O)[C@H](CC(C)C)NC(=O)[C@H](CC(C)C)NC(=O)CNC(=O)[C@@H](NC(=O)[C@@H]1CCCN1C(=O)[C@@H](NC(=O)[C@H](CC(=O)O)NC(=O)[C@H](CC(C)C)NC(=O)[C@H](CO)NC(=O)[C@H](CC(C)C)NC(=O)[C@@H](NC(=O)[C@@H](NC(=O)[C@@H](N)CCCCNC(=O)COCCOCCNC(=O)COCCOCCNC(=O)CC[C@H](NC(=O)CC[C@H](NC(=O)CC[C@H](NC(=O)CCCCCCCCCCCCCCCCCCC(=O)O)C(=O)O)C(=O)O)C(=O)O)[C@@H](C)CC)C(C)C)C(C)C)[C@@H](C)CC)[C@@H](C)CC)[C@@H](C)O)[C@@H](C)O)C(=O)N[C@@H](CC(C)C)C(=O)N[C@@H](C)C(=O)N[C@@H](CCC(=O)O)C(=O)N[C@H](C(N)=O)C(C)C [Compound 3] (H-K([AEEA-AEEA-γGlu-γGlu-γGlu-C20 diacid])IVLSLDVPIGLLQILLEQARARAAREQATTNAEILAEV-NH2)
  half-life: 96 h

## CC[C@H](C)[C@H](NC(=O)[C@H](CCC(=O)O)NC(=O)[C@H](C)NC(=O)[C@H](CC(N)=O)NC(=O)[C@@H](NC(=O)[C@@H](NC(=O)[C@H](C)NC(=O)[C@H](CCC(N)=O)NC(=O)[C@H](CCC(=O)O)NC(=O)[C@H](CCCNC(=N)N)NC(=O)[C@H](C)NC(=O)[C@H](C)NC(=O)[C@H](CCCNC(=N)N)NC(=O)[C@H](C)NC(=O)[C@H](CCCNC(=N)N)NC(=O)[C@H](C)NC(=O)[C@H](CCC(N)=O)NC(=O)[C@H](CCC(=O)O)NC(=O)[C@H](CC(C)C)NC(=O)[C@H](CC(C)C)NC(=O)[C@@H](NC(=O)[C@H](CCC(N)=O)NC(=O)[C@H](CC(C)C)NC(=O)[C@H](CC(C)C)NC(=O)CNC(=O)[C@@H](NC(=O)[C@@H]1CCCN1C(=O)[C@@H](NC(=O)[C@H](CC(=O)O)NC(=O)[C@H](CC(C)C)NC(=O)[C@H](CO)NC(=O)[C@H](CC(C)C)NC(=O)[C@@H](NC(=O)[C@@H](NC(=O)[C@@H](N)CCCCNC(=O)COCCOCCNC(=O)COCCOCCNC(=O)CC[C@H](NC(=O)CC[C@H](NC(=O)CC[C@H](NC(=O)CCCCCCCCCCCCCCCCCCC(=O)O)C(=O)O)C(=O)O)C(=O)O)[C@@H](C)CC)C(C)C)C(C)C)[C@@H](C)CC)[C@@H](C)CC)[C@@H](C)O)[C@@H](C)O)C(=O)N[C@@H](CC(C)C)C(=O)N[C@@H](CCC(=O)O)C(=O)N[C@@H](CCCNC(=N)N)C(=O)N[C@H](C(N)=O)C(C)C [Compound 4] (H-K([AEEA-AEEA-γGlu-γGlu-γGlu-C20 diacid])IVLSLDVPIGLLQILLEQARARAAREQATTNAEILERV-NH2)
  half-life: 103 h

From patent US20230233650A1, “NOVEL FATTY ACID MODIFIED UROCORTIN 2 DERIVATIVES AND THE USES THEREOF” (Novo Nordisk A/S, priority 2021, published 2023)
